Assay results from patent publication US6114517A, “Methods of modulating tumor necrosis factor α-induced expression of cell adhesion molecules” (Isis Pharmaceuticals Inc., priority 1998, dated 2000).

What was measured:
Assay type in all cases: cell-based, human
c-raf mRNA = c-raf mRNA levels by Northern blot in HMVEC
Description: (§1) Human dermal microvascular cells (HMVEC-d; Clonetics, San Diego, Calif.) were cultivated in endothelial basal media (EBM, Clonetics) supplemented with 10% fetal bovine serum (HyClone, Logan, Utah). Cells were grown in 100 mm petri dishes until 70-80% confluent, then washed with PBS and OPTI-MEM (Life Technologies, Inc., Gaithersburg, Md.). The cells were then incubated in the presence of OPTI-MEM and […] LIPOFECTIN (a 1:1 (w/w) liposome formulation of the cationic lipid N-[1-(2,3-dioleyloxy)propyl]-n,n,n-trimethylammonium chloride (DOTMA), and dioleoyl phosphotidylethanolamine (DOPE) in membrane filtered water (Life Technologies, Gaithersburg, Md.), per 100 nM of oligonucleotide followed by addition of oligonucleotide at the appropriate concentrations.
(§2) For determination of mRNA levels by Northern blot, total RNA was prepared from cells by the guanidinium isothiocyanate procedure or by the Qiagen RNAEASY method (Qiagen, Santa Clarita, Calif.) at the indicated times after initiation of oligonucleotide treatment. Northern blot analysis was performed as described in Current Protocols in Molecular Biology (Ausubel, F. M., et al., (eds), 1987, Greene Publishing Assoc. and Wiley Interscience, New York). A glyceraldehyde 3-phosphate dehydrogenase (G3PDH) probe was purchased from Clontech (Palo Alto, Calif., Catalog Number 9805-1). RNA was quantified and normalized to G3PDH mRNA levels using a Molecular Dynamic PHOSPHORIMAGER (Sunnyvale, Calif.).
ISIS 12854 (SEQ ID NO. 2) is a 2'-O-methoxyethyl mixed backbone chimeric antisense oligonucleotide designed to hybridize with 3'-untranslated sequences contained within human c-raf mRNA. To determine whether this antisense oligonucleotide is effective as a c-raf inhibitor in endothelial cells, human dermal microvascular cells (HMVEC) were treated with ISIS 12854 (SEQ ID NO. 2) as described in Example 2. C-raf mRNA and protein expression was examined by northern and Western blot analysis. The c-raf cDNA probe was generated from the plasmid, p627 (American Type Culture Collection, Manassas, Va.; catalog #41050), following the supplied instructions. The c-raf antibody was obtained from Transduction Laboratories, Inc. (Lexington, Ky.).

ICAM-1 = assay: TNF-α-induced ICAM-1 cell surface expression in HMVEC, flow cytometry
Description: as §1
(§3) The effect of c-raf and Ha-ras antisense oligonucleotide treatment on the induction of E-selectin by TNF-α was examined. HMVEC cells were treated with either the c-raf or Ha-ras antisense compound under dose-response conditions or over time at a single dose level followed by stimulation of E-selectin expression by TNF-α for 5 hours. The cell surface expression of E-selectin was determined by flow cytometry analysis. Following oligonucleotide treatment, cells were detached from the plates and analyzed for surface expression of cell adhesion molecules using a Becton Dickinson (San Jose, Calif.) FACScan. TNF-α and FITC conjugated antibody for E-selectin were obtained from R & D Systems (Minneapolis, Minn.). PE-conjugated antibody for ICAM-1 was obtained from Pharmingen (San Diego, Calif.). VCAM-1 antibody was obtained from Santa Cruz Biotechnology, Santa Cruz, Calif. Cell surface expression was calculated using the mean value of fluorescence intensity using 3,000-5,000 cells stained with the appropriate antibody for each sample and time point. Results are expressed as percentage of control (cell surface expression induced by TNF-α in cells that were not treated with oligonucleotides) based upon mean fluorescence intensity. Basal expression of E-selectin and VCAM-1 is undetectable in the absence of TNF-α whereas a low level of basal expression is detectable for ICAM-1.
(§4) TNF-α induction of ICAM-1 and VCAM-1 in cells treated with c-raf and Ha-ras antisense oligonucleotides was also examined to further define the roles of c-raf and Ha-ras in cytokine signaling. Oligonucleotides were tested, using flow cytometry analysis, as described in Example 4. Results are shown in Table 6 (ICAM-1) and Table 7 (VCAM-1).

VCAM-1 = assay: TNF-α-induced VCAM-1 cell surface expression in HMVEC, flow cytometry
Description: as §1, §3, §4

E-selectin mRNA = assay: TNF-α-induced E-selectin mRNA, Northern blot; conditions: 48 hrs recovery, TNF-α two to three hours before RNA analysis
Description: as §2
(§5) Northern blot analysis was carried out to examine whether c-raf and Ha-ras antisense oligonucleotides inhibit the induction of cell adhesion molecules at the transcriptional level. Cells were treated with c-raf (ISIS 12854, SEQ ID NO. 2) or Ha-ras (ISIS 15168, SEQ ID NO. 4) antisense oligonucleotides and allowed to recover for 48 hrs. TNF-α was added two to three hours prior to RNA analysis and Northern blotting was performed with probes specific for E-selectin, ICAM-1, and VCAM-1. The probe for E-selectin was obtained by PCR amplification using primers directed to HUMELAM1A (Genbank Accession No. M24736; SEQ ID NO. 18).

E-selectin = assay: TNF-α-induced E-selectin cell surface expression in HMVEC, flow cytometry
Description: as §1
as §3, with “intensity.” for “intensity. Basal expression of E-selectin and VCAM-1 is undetectable in the absence of TNF-α whereas a low level of basal expression is detectable for ICAM-1.”
The effects of c-raf, Ha-ras, and a E-selectin antisense oligonucleotide on TNF-α-induced E-selectin cell surface expression under kinetic conditions were examined. […] To test this, cells were treated, separately, with antisense oligonucleotides to E-selectin, ICAM-1 and VCAM-1 and allowed to recover prior to TNF-α treatment. […] E-selectin cell surface expression was measured by flow cytometry analysis after 5 hours of TNF-A treatment.

ICAM-1 mRNA = assay: TNF-α-induced ICAM-1 mRNA, Northern blot; conditions: 48 hrs recovery, TNF-α two to three hours before RNA analysis
Description: as §2, §5

VCAM-1 mRNA = assay: TNF-α-induced VCAM-1 mRNA, Northern blot; conditions: 48 hrs recovery, TNF-α two to three hours before RNA analysis
Description: as §2, §5

JNK1 mRNA = JNK1 mRNA expression by Northern blot; conditions: at the concentration tested, FIG. 4
Description: as §1
as §2, with “A glyceraldehyde 3-phosphate dehydrogenase (G3PDH) probe was purchased from Clontech (Palo Alto, Calif., Catalog Number 9805-1).” left out, “Calif.). […]” for “Calif.).”

JNK1 = assay: TNF-α-mediated JNK1 kinase activity, isoform-specific JNK assay; conditions: FIG. 5
Description: (§6) To examine the effect of the c-raf antisense oligonucleotide (ISIS 12854, SEQ ID NO. 2) on ERK, JNK, and p38 MAPK activities stimulated by TNF-α, in vitro kinase assays were performed on extracts derived from cells treated with ISIS 12854 (SEQ ID NO. 2). Cells were treated with oligonucleotides and induced with cytokines. At the indicated time, cells were lysed on ice and debris was removed by centrifugation. Protein concentration was measured by Bradford assay. Lysate containing equal amounts of protein were incubated with primary antibody-agarose conjugates (ERK and p38 assay; Santa Cruz Biotechnology, Santa Cruz, Calif.), or with JNK1-specific or JNK2-specific antibodies (JNK assay; Upstate Biotechnology, Lake Placid, N.Y.), overnight at 4° C.
(§7) For isoform-specific JNK assays, anti-rabbit IgG conjugated with agarose beads was added to cell extracts following JNK antibody treatment and wash steps and incubated for 2 hours at 4° C. After washing with lysis buffer and kinase buffer, the pelleted beads were incubated with 1 μg of substrate (Elk-1 for ERK, ATF-2 for p38, and c-Jun for JNK MAPK) and 100 […] of ATP for 20 minutes at 37° C. MAPK and JNK assay kits, ATF-2 fusion protein, and antibodies for ATF-2, Elk-1 phospho-ATF-2 were purchased from New England BioLabs (Boston, Mass.). Reactions were terminated by the addition of 3×SDS sample buffer followed by boiling. […]

JNK2 mRNA = JNK2 mRNA expression by Northern blot; conditions: at the concentration tested, FIG. 4
Description: as §1
as §2, with “A glyceraldehyde 3-phosphate dehydrogenase (G3PDH) probe was purchased from Clontech (Palo Alto, Calif., Catalog Number 9805-1).” left out, “Calif.). […]” for “Calif.).”

JNK2 = assay: TNF-α-mediated JNK2 kinase activity, isoform-specific JNK assay; conditions: FIG. 5
Description: as §6, §7

[1] = Table 9, JNK antisense series, 20 nM
[2] = Table 9, JNK antisense series, 50 nM
[3] = Table 9, JNK antisense series, 100 nM
[4] = time course, 12 h/20 h after oligonucleotide treatment, TNF-α 5 hours
[5] = time course, 48 h after oligonucleotide treatment, TNF-α 5 hours
[6] = time course, 72 h after oligonucleotide treatment, TNF-α 5 hours

Question: How did the “effect on c-raf mRNA” value (c-raf mRNA) turn out when “AoToGoCoAoTsTsCsTsGsCsCsCsCsCoAoAoGoGoA [ISIS 15727, reference compound]” was run?
Answer: did not exhibit any effect

Question: What about the “% mRNA Expression (c-raf)” value (c-raf mRNA; 100 nM) of the same substance?
Answer: 96%

Question: And the “% mRNA Inhibition (c-raf)” value (c-raf mRNA; 100 nM)?
Answer: 4%

Question: And the “% mRNA Expression (c-raf)” value (c-raf mRNA; 200 nM)?
Answer: 135%

Question: And the “% Cell Surface Expression (ICAM-1)” value (ICAM-1; 20 nM)?
Answer: 97%

Question: What about the “% Cell Surface Inhibition (ICAM-1)” value (ICAM-1; 20 nM) of the same substance?
Answer: 3%

Question: And the “% Cell Surface Expression (ICAM-1)” value (ICAM-1; 50 nM)?
Answer: 89%

Question: What about the “% Cell Surface Inhibition (ICAM-1)” value (ICAM-1; 50 nM) of the same substance?
Answer: 11%

Question: What about the “% Cell Surface Expression (ICAM-1)” value (ICAM-1; 100 nM) of the same substance?
Answer: 87%

Question: What about the “% Cell Surface Inhibition (ICAM-1)” value (ICAM-1; 100 nM) of the same substance?
Answer: 13%

Question: What about the “% Cell Surface Expression (VCAM-1)” value (VCAM-1; 20 nM) of the same substance?
Answer: 69%

Question: And the “% Cell Surface Inhibition (VCAM-1)” value (VCAM-1; 20 nM)?
Answer: 31%

Question: What about the “% Cell Surface Expression (VCAM-1)” value (VCAM-1; 50 nM) of the same substance?
Answer: 81%

Question: What about the “% Cell Surface Inhibition (VCAM-1)” value (VCAM-1; 50 nM) of the same substance?
Answer: 19%

Question: And the “% Cell Surface Expression (VCAM-1)” value (VCAM-1; 100 nM)?
Answer: 74%

Question: And the “% Cell Surface Inhibition (VCAM-1)” value (VCAM-1; 100 nM)?
Answer: 26%

Question: What about the “% mRNA Expression (E-selectin)” value (E-selectin mRNA) of the same substance?
Answer: 103%

Question: And the “% Cell Surface Expression (E-selectin)” value (E-selectin; 25 nM, TNF-α for 5 hours, % of control)?
Answer: 119%

Question: And the “% Cell Surface Inhibition (E-selectin)” value (E-selectin; 75 nM, TNF-α for 5 hours)?
Answer: 6%

Question: And the “% Cell Surface Expression (E-selectin)” value (E-selectin; 75 nM, TNF-α for 5 hours, % of control)?
Answer: 94%

Question: And the “% Cell Surface Expression (E-selectin)” value (E-selectin; 150 nM, TNF-α for 5 hours, % of control)?
Answer: 106%

Question: What about the “% Cell Surface Expression (E-selectin)” value (E-selectin; [1]) of the same substance?
Answer: 137%

Question: And the “% Cell Surface Expression (E-selectin)” value (E-selectin; [2])?
Answer: 128%

Question: What about the “% Cell Surface Expression (E-selectin)” value (E-selectin; [3]) of the same substance?
Answer: 124%

Question: What about the “effect on E-selectin induction” value (E-selectin; dose response, HMVEC) of the same substance?
Answer: little to no effect

Question: And the “% Cell Surface Expression (E-selectin)” value (E-selectin; [4])?
Answer: 93%

Question: And the “% Cell Surface Inhibition (E-selectin)” value (E-selectin; [4])?
Answer: 7%

Question: And the “% Cell Surface Expression (E-selectin)” value (E-selectin; [5])?
Answer: 106%

Question: And the “% Cell Surface Expression (E-selectin)” value (E-selectin; [6])?
Answer: 81%

Question: What about the “% Cell Surface Inhibition (E-selectin)” value (E-selectin; [6]) of the same substance?
Answer: 19%

Question: What about the “% mRNA Expression (ICAM-1)” value (ICAM-1 mRNA) of the same substance?
Answer: 107%

Question: And the “% mRNA Expression (VCAM-1)” value (VCAM-1 mRNA)?
Answer: 113%

Question: What does the source list for “CoToCoToCoTsGsTsAsGsGsCsCsCsGsCoToToGoG [ISIS 15347]”?
Answer: JNK1 mRNA expression (JNK1 mRNA): nearly complete inhibition; TNF-α-mediated induction of JNK1 activity (JNK1): effectively reduced; % Cell Surface Expression (E-selectin) (E-selectin; [1]): 89%; % Cell Surface Inhibition (E-selectin) (E-selectin; [1]): 11%; % Cell Surface Expression (E-selectin) (E-selectin; [2]): 84%; % Cell Surface Inhibition (E-selectin) (E-selectin; [2]): 16%; % Cell Surface Expression (E-selectin) (E-selectin; [3]): 82%; % Cell Surface Inhibition (E-selectin) (E-selectin; [3]): 18%

Question: How did the “JNK1 mRNA expression” value (JNK1 mRNA) turn out when “GoToCoCoGoGsGsCsCsAsGsGsCsCsAsAoAoGoToC [ISIS 15354]” was run?
Answer: without affecting

Question: What about the “JNK2 mRNA expression” value (JNK2 mRNA) of the same substance?
Answer: nearly complete inhibition

Question: And the “% Cell Surface Expression (E-selectin)” value (E-selectin; [1])?
Answer: 32%

Question: And the “% Cell Surface Inhibition (E-selectin)” value (E-selectin; [1])?
Answer: 68%

Question: And the “% Cell Surface Expression (E-selectin)” value (E-selectin; [2])?
Answer: 29%

Question: And the “% Cell Surface Inhibition (E-selectin)” value (E-selectin; [2])?
Answer: 71%

Question: What about the “% Cell Surface Expression (E-selectin)” value (E-selectin; [3]) of the same substance?
Answer: 33%

Question: And the “% Cell Surface Inhibition (E-selectin)” value (E-selectin; [3])?
Answer: 67%

Question: And the “TNF-α-mediated induction of JNK2 activity” value (JNK2)?
Answer: effectively reduced

Question: Which results are given for “GsAsAsGsTsCsAsGsCsCsAsAsGsAsAsCsAsGsCsT (GAAGTCAGCCAAGAACAGCT; all phosphorothioate, sugars by position and methylation of C not given here) [ISIS 11928, fully phosphorothioated oligonucleotide with all 2'-methoxyethoxy nucleotides except a 3' terminal 2'-deoxy nucleotide, antisense to E-selectin]”?
Answer: block of E-selectin cell surface expression (E-selectin; concentrations as low as 20 nM, 12 hours following treatment): 80%; % Cell Surface Expression (E-selectin) (E-selectin; [4]): 22%; % Cell Surface Inhibition (E-selectin) (E-selectin; [4]): 78%; % Cell Surface Expression (E-selectin) (E-selectin; [5]): 29%; % Cell Surface Inhibition (E-selectin) (E-selectin; [5]): 71%; % Cell Surface Expression (E-selectin) (E-selectin; [6]): 32%; % Cell Surface Inhibition (E-selectin) (E-selectin; [6]): 68%
